In this test the test system is dogs, whose liver functions were not improved after the administration of SAMe. The test is described as follows: Administration of SAMe followed by administration of Composition A1 to dogs; serum ALT, AST. Type of test: in vivo. The following applies: SAMe alone to dogs, clinically observed. As for the experimental part: Therefore, Composition A1 was administered to 3 dogs, whose liver functions were not improved after the administration of SAMe. And the serum biochemistry values related to the liver function, ALT, AST and ALKP, were examined.

As for `C[S+](CC[C@H](N)C(=O)[O-])C[C@H]1O[C@@H](n2cnc3c(N)ncnc32)[C@H](O)[C@@H]1O` (stereo partly shown) [SAMe, S-adenosylmethionine], the “improvement of liver functions” value is “liver functions still cannot be improved”.

Source of the values: patent US20190365697A1, “Method for Treating Liver Dysfunction” (PROFEAT BIOTECHNOLOGY CO., LTD., priority 2017, published 2019).
